Test results from patent US20160122320A1, “USEFUL COMBINATIONS OF MONOBACTAM ANTIBIOTICS WITH BETA-LACTAMASE INHIBITORS” (Basilea Pharmaceutica AG, priority 2005, published 2016).

How the values were obtained:
Experiment in all cases: MIC, NCCLS broth microdilution
Assay type in all cases: cell-based
Serratia marcescens S6 = system: Serratia marcescens S6
[1] = system: Enterobacter cloacae B1102
Description: (§1) Antimicrobial activity of the compounds and of their combinations was determined against a selection of organisms according to the standard procedures described by the National Committee for Clinical Laboratory Standards (National Committee for Clinical Laboratory. Standards (2000). Methods for Dilution Antimicrobial Susceptibility Tests for Bacteria That Grow Aerobically-Fifth Edition: Approved Standard M7-A5. NCCLS, Wayne, Pa., USA).
(§2) In all cases the final concentration of DMSO incubated with the bacteria is less than or equal to 1%. […] Plates were incubated overnight at an appropriate temperature (30° C. or 37° C.) and optical densities assessed by eye. The MIC value is defined as the lowest compound concentration completely inhibiting visible growth of the test organism. When combinations between compounds of formula I with compounds of formula II and are evaluated the compounds of formula I are tested in dilution series as described above while the compounds of formula II and III-XIII were present in all wells at a constant concentration of 4 μg/mL each.

Acinetobacter sp. J2 = conditions: for MIC of antibiotic: antibiotic alone, no inhibitor
[2] = system: Klebsiella pneumoniae CF104
Description: as §1, §2

[3] = system: Enterobacter aerogenes Zayakosky; conditions: Enterobacter aerogenes Zayakosky
Description: as §1, §2

[4] = system: Stenotrophomonas malthophilia 1AC736; conditions: for MIC of antibiotic: antibiotic alone, no inhibitor
[5] = system: Enterobacter cloacae M4018
Description: as §2

[6] = with clavulanate (clavulanic acid)
[7] = + compound 323 and clavulanate, 4 mg/L each

## CC1C(NC(=O)C(=NOCc2cc(=O)c(O)cn2O)c2csc(N)n2)C(=O)N1S(=O)(=O)O (centres unmarked) [Compound 1]
Serratia marcescens S6; with 323 and sulbactam
  MIC of antibiotic at fixed inhibitor concentration of 4 mg/L: 0.5 µg/mL
Serratia marcescens S6; with 324 and clavulanate
  MIC of antibiotic at fixed inhibitor concentration of 4 mg/L: 1 µg/mL
Serratia marcescens S6; with 501
  MIC of antibiotic at fixed inhibitor concentration of 4 mg/L: 4 µg/mL
Serratia marcescens S6; [6]
  MIC of antibiotic at fixed inhibitor concentration of 4 mg/L: 4 µg/mL
[1]; + clavulanate 4 mg/L
  Minimal Inhibitory Concentration of antibiotic at fixed inhibitor concentration of 4 mg/L: 32 mg/L
[1]; + compound 206 4 mg/L
  Minimal Inhibitory Concentration of antibiotic at fixed inhibitor concentration of 4 mg/L: 16 mg/L
[1]; [7]
  Minimal Inhibitory Concentration of antibiotic at fixed inhibitor concentration of 4 mg/L: 8 mg/L
[1]; + compound 501 4 mg/L
  Minimal Inhibitory Concentration of antibiotic at fixed inhibitor concentration of 4 mg/L: 16 mg/L
[1]; antibiotic alone
  Minimal Inhibitory Concentration of antibiotic: >32 mg/L
Acinetobacter sp. J2; Acinetobacter baumannii J2
  MIC of antibiotic: >32 µg/mL
Acinetobacter sp. J2; Acinetobacter baumannii J2, with 111 and clavulanate
  MIC of antibiotic at fixed inhibitor concentration of 4 mg/L: 4 µg/mL
Acinetobacter sp. J2; Acinetobacter baumannii J2, with 202 and clavulanate
  MIC of antibiotic at fixed inhibitor concentration of 4 mg/L: 4 µg/mL
Acinetobacter sp. J2; Acinetobacter baumannii J2, with 206 and clavulanate
  MIC of antibiotic at fixed inhibitor concentration of 4 mg/L: 4 µg/mL
Acinetobacter sp. J2; Acinetobacter baumannii J2, with 323 and clavulanate
  MIC of antibiotic at fixed inhibitor concentration of 4 mg/L: 16 µg/mL
Acinetobacter sp. J2; Acinetobacter baumannii J2, with 323 and sulbactam
  MIC of antibiotic at fixed inhibitor concentration of 4 mg/L: 1 µg/mL
Acinetobacter sp. J2; Acinetobacter baumannii J2, with 324 and clavulanate
  MIC of antibiotic at fixed inhibitor concentration of 4 mg/L: 32 µg/mL
Acinetobacter sp. J2; Acinetobacter baumannii J2, with 501
  MIC of antibiotic at fixed inhibitor concentration of 4 mg/L: <0.06 µg/mL
Acinetobacter sp. J2; Acinetobacter baumannii J2, with clavulanate (clavulanic acid)
  MIC of antibiotic at fixed inhibitor concentration of 4 mg/L: >32 µg/mL
Acinetobacter sp. J2; Acinetobacter sp. J2
  MIC of antibiotic: >32 µg/mL
[2]; antibiotic alone, no inhibitor
  MIC of antibiotic: >32 µg/mL
[2]; with 102 and clavulanate
  MIC of antibiotic at fixed inhibitor concentration of 4 mg/L: 1 µg/mL
[2]; with 111 and clavulanate
  MIC of antibiotic at fixed inhibitor concentration of 4 mg/L: <0.06 µg/mL
[2]; with 202 and clavulanate
  MIC of antibiotic at fixed inhibitor concentration of 4 mg/L: 2 µg/mL
[2]; with 206 and clavulanate
  MIC of antibiotic at fixed inhibitor concentration of 4 mg/L: 0.25 µg/mL
[2]; with 323 and clavulanate
  MIC of antibiotic at fixed inhibitor concentration of 4 mg/L: 2 µg/mL
[2]; with 323 and sulbactam
  MIC of antibiotic at fixed inhibitor concentration of 4 mg/L: 1 µg/mL
[2]; with 324 and clavulanate
  MIC of antibiotic at fixed inhibitor concentration of 4 mg/L: 1 µg/mL
[2]; with 501
  MIC of antibiotic at fixed inhibitor concentration of 4 mg/L: 0.5 µg/mL
[2]; [6]
  MIC of antibiotic at fixed inhibitor concentration of 4 mg/L: 0.5 µg/mL
[3]; + clavulanate 4 mg/L
  Minimal Inhibitory Concentration of antibiotic at fixed inhibitor concentration of 4 mg/L: >32 mg/L
[3]; + compound 206 4 mg/L
  Minimal Inhibitory Concentration of antibiotic at fixed inhibitor concentration of 4 mg/L: >32 mg/L
[3]; [7]
  Minimal Inhibitory Concentration of antibiotic at fixed inhibitor concentration of 4 mg/L: 16 mg/L
[3]; + compound 501 4 mg/L
  Minimal Inhibitory Concentration of antibiotic at fixed inhibitor concentration of 4 mg/L: >32 mg/L
[3]; antibiotic alone
  Minimal Inhibitory Concentration of antibiotic: >32 mg/L
[4]; Stenotrophomonas malthophilia 1AC736
  MIC of antibiotic: 0.5 µg/mL
[4]; Stenotrophomonas maltophilia 1AC736
  MIC of antibiotic: 1 µg/mL
[4]; Stenotrophomonas maltophilia 1AC736, with 102 and sulbactam
  MIC of antibiotic at fixed inhibitor concentration of 4 mg/L: 2 µg/mL
[4]; Stenotrophomonas maltophilia 1AC736, with 111 and clavulanate
  MIC of antibiotic at fixed inhibitor concentration of 4 mg/L: 0.125 µg/mL
[4]; Stenotrophomonas maltophilia 1AC736, with 202 and clavulanate
  MIC of antibiotic at fixed inhibitor concentration of 4 mg/L: 0.125 µg/mL
[4]; Stenotrophomonas maltophilia 1AC736, with 206 and clavulanate
  MIC of antibiotic at fixed inhibitor concentration of 4 mg/L: 0.125 µg/mL
[4]; Stenotrophomonas maltophilia 1AC736, with 323 and clavulanate
  MIC of antibiotic at fixed inhibitor concentration of 4 mg/L: 0.125 µg/mL
[4]; Stenotrophomonas maltophilia 1AC736, with 323 and sulbactam
  MIC of antibiotic at fixed inhibitor concentration of 4 mg/L: 0.125 µg/mL
[4]; Stenotrophomonas maltophilia 1AC736, with 324 and clavulanate
  MIC of antibiotic at fixed inhibitor concentration of 4 mg/L: 0.125 µg/mL
[4]; Stenotrophomonas maltophilia 1AC736, with 501
  MIC of antibiotic at fixed inhibitor concentration of 4 mg/L: 0.25 µg/mL
[4]; Stenotrophomonas maltophilia 1AC736, with clavulanate (clavulanic acid)
  MIC of antibiotic at fixed inhibitor concentration of 4 mg/L: 0.5 µg/mL
[5]; + clavulanate 4 mg/L
  Minimal Inhibitory Concentration of antibiotic at fixed inhibitor concentration of 4 mg/L: >32 mg/L
[5]; + compound 206 4 mg/L
  Minimal Inhibitory Concentration of antibiotic at fixed inhibitor concentration of 4 mg/L: 8 mg/L
[5]; [7]
  Minimal Inhibitory Concentration of antibiotic at fixed inhibitor concentration of 4 mg/L: 2 mg/L
[5]; + compound 501 4 mg/L
  Minimal Inhibitory Concentration of antibiotic at fixed inhibitor concentration of 4 mg/L: 16 mg/L
[5]; antibiotic alone
  Minimal Inhibitory Concentration of antibiotic: 32 mg/L
